From PMC3104272 (Journal of medicinal chemistry, 2011)
In brackets after ≈: the same amount, converted by molar mass. Where two headings read alike, the source gives them in different places.

What was measured:
[1] = system: P. falciparum chloroquine resistant strain W2; test: In vitro antiplasmodial activity, W2 strain; format: cell-based; conditions: Plasmodium falciparum, W2, read-out: IC50, W2
[2] = system: P. falciparum chloroquine resistant strain Dd2; test: In vitro antiplasmodial activity, Dd2 strain; format: cell-based; conditions: Plasmodium falciparum, DD2, read-out: IC50, Dd2
[3] = system: P. falciparum chloroquine sensitive strain D10; test: In vitro antiplasmodial activity, D10 strain; format: cell-based; conditions: Plasmodium falciparum, D10, read-out: IC50, D10
[4] = NADPH and UDPGA relative to NADPH alone; putative P + 176 metabolite
[5] = system: Chinese Hamster Ovarian (mammalian) cell line; conditions: previously reported finding; cited from earlier work
Falcipain 2 = target: T1, Falcipain 2 (Plasmodium falciparum, UniProt Q8I6U4); test: Falcipain 2 inhibition assay; format: biochemical; conditions: averages of duplicate determinations
T1 sequence (Q8I6U4 244-484): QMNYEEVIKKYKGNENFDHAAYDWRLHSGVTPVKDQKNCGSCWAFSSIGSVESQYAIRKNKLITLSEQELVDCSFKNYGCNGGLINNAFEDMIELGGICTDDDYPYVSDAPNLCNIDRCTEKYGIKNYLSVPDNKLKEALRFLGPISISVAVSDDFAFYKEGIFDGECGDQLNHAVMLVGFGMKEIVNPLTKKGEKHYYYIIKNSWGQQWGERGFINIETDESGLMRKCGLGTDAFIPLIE

Solubility estimates = format: physicochemical; conditions: for Solubility pH 2.0: 0.01M HCl (approximately pH 2.0)
[6] = In vitro metabolic stability, mouse liver microsomes; format: in vitro ADME; conditions: calculated hepatic extraction ratio
[7] = In vitro metabolic stability, human liver microsomes; format: in vitro ADME; conditions: calculated hepatic extraction ratio
[8] = system: Chinese Hamster Ovarian (mammalian) cell line; test: Cytotoxicity against Chinese Hamster Ovarian cell line; format: cell-based; conditions: highest concentration (100 µM) tested

Row | Structure (SMILES) | Primary glucuronidation [4] | Falcipain 2 (IC50) (Falcipain 2) | solubility (Solubility estimates; phosphate buffer, pH 6.5) | Microsome-Predicted Extraction ratio (EH), Mouse [6] | Microsome-Predicted Extraction ratio (EH), Human [7] | other results
1 | CCN(CC)CCCC(C)Nc1ccnc2cc(Cl)ccc12 (stereo not drawn) [Chloroquine] | no major increase in the rate of degradation |  |  |  |  | IC50 [1]: 69 nM; IC50 [2]: 97 nM; IC50 [3]: 17 nM
2 | COc1ccc(C(=O)/C=C/c2ccc(OCc3cn(-c4ccnc5cc(Cl)ccc45)nn3)c(OC)c2)c(OC)c1 [Compound 8b] | no major increase in the rate of degradation | lower micromolar IC50 values |  |  |  | Cytotoxicity [5]: No cytotoxicity was observed; Solubility pH 2.0 (Solubility estimates; 1% DMSO): no increase in solubility under acidic conditions
3 | COc1cc(/C=C/C(C)=O)ccc1OCc1cn(-c2ccnc3cc(Cl)ccc23)nn1 [Compound 12] | no putative metabolites detected with molecular weights consistent with glucuronidation |  | 3.1 to 6.3 µg/mL (≈ 7.13 to 14.5 µM) |  |  | Solubility pH 2.0 (Solubility estimates; 1% DMSO): no increase in solubility under acidic conditions; solubility (Solubility estimates; 0.01M HCl, pH 2): 3.1 to 6.3 µg/mL (≈ 7.13 to 14.5 µM)
4 | COc1cc(/C=C/C(C)=O)ccc1OCCNc1ccnc2cc(Cl)ccc12 [Compound 20, 4-{4-[2-(7-Chloro-quinolin-4-ylamino)-ethoxy]-3-methoxy-phenyl}-but-3-en-2-one] | no major increase in the rate of degradation | relatively low potencies | 6.3 to 12.5 µg/mL (≈ 15.9 to 31.5 µM) | 0.85 | 0.90 | solubility (Solubility estimates; 0.01M HCl, pH 2): 50 to 100 µg/mL (≈ 126 to 252 µM); Solubility pH 6.5 (Solubility estimates; pH 6.5 phosphate buffer, 1% DMSO): moderate solubility
5 | COc1ccc(C(=O)/C=C/c2ccc(OCCNc3ccnc4cc(Cl)ccc34)c(OC)c2)c(OC)c1 [Compound 21, 3-{4-[2-(7-Chloro-quinolin-4-ylamino)-ethoxy]-3-methoxy-phenyl}-1-(2,4-dimethoxy-phenyl)-propenone] | no major increase in the rate of degradation | lower micromolar IC50 values | 3.1 to 6.3 µg/mL (≈ 5.97 to 12.1 µM) | 0.86 | 0.85 | 
6 | COc1cc(/C=C/C(C)=O)ccc1OCCN1CCN(c2ccnc3cc(Cl)ccc23)CC1 [Compound 22, 4-(4-{2-[4-(7-Chloro-quinolin-4-yl)-piperazin-1-yl]-ethoxy}-3-methoxy-phenyl)-but-3-en-2-one] | no putative metabolites detected with molecular weights consistent with glucuronidation | relatively low potencies | 1.6 to 3.1 µg/mL (≈ 3.43 to 6.65 µM) |  |  | 
7 | COc1ccc(C(=O)/C=C/c2ccc(OCCN3CCN(c4ccnc5cc(Cl)ccc45)CC3)c(OC)c2)c(OC)c1 [Compound 23, 3-(4-{2-[4-(7-Chloro-quinolin-4-yl)-piperazin-1-yl]-ethoxy}-3-methoxy-phenyl)-1-(2,4-dimethoxy-phenyl)-propenone] | no major increase in the rate of degradation | lower micromolar IC50 values |  |  |  | 
8 | COc1cc(/C=C/C(C)=O)cc(CN2CCN(c3ccnc4cc(Cl)ccc34)CC2)c1O [Compound 24, 4-{3-[4-(7-Chloro-quinolin-4-yl)-piperazin-1-ylmethyl]-4-hydroxy-5-methoxyphenyl}-but-3-en-2-one] |  | relatively low potencies | 1.6 to 3.1 µg/mL (≈ 3.54 to 6.86 µM) | 0.84 | 0.85 | 
9 | COc1ccc(C(=O)/C=C/c2cc(CN3CCN(c4ccnc5cc(Cl)ccc45)CC3)c(O)c(OC)c2)c(OC)c1 [Compound 25, 3-{3-[4-(7-Chloro-quinolin-4-yl)-piperazin-1-ylmethyl]-4-hydroxy-5-methoxyphenyl}-1-(2,4-dimethoxy-phenyl)-propenone] |  | lower micromolar IC50 values |  | 0.87 | 0.72 | Cytotoxicity [8]: No cytotoxicity was observed
10 | CC(=O)/C=C/c1ccc(O)c(CN2CCN(c3ccnc4cc(Cl)ccc34)CC2)c1 [Compound 26, 4-{3-[4-(7-Chloro-quinolin-4-yl)-piperazin-1-ylmethyl]-4-hydroxy-phenyl}-but-3-en-2-one] |  | lower micromolar IC50 values |  | 0.84 | 0.93 | 
11 | COc1ccc(C(=O)/C=C/c2ccc(O)c(CN3CCN(c4ccnc5cc(Cl)ccc45)CC3)c2)c(OC)c1 [Compound 27, 3-{3-[4-(7-Chloro-quinolin-4-yl)-piperazin-1-ylmethyl]-4-hydroxy-phenyl}-1-(2,4-dimethoxy-phenyl)-propenone] |  | lower micromolar IC50 values |  |  |  | Cytotoxicity [8]: No cytotoxicity was observed
